In patent US20230167070A1, “MODULATORS OF TREX1” (Constellation Pharmaceuticals, Inc., priority 2020, published 2023) one finds IC50 data, which are given here for 19 compounds.

In one assay the target is T1, full length human TREX1 (Homo sapiens, UniProt Q9NSU2).
T1 construct: N-terminally His-Tev tagged full length human TREX1; made in house; host or cells: E. coli
T1 sequence (Q9NSU2 1-314): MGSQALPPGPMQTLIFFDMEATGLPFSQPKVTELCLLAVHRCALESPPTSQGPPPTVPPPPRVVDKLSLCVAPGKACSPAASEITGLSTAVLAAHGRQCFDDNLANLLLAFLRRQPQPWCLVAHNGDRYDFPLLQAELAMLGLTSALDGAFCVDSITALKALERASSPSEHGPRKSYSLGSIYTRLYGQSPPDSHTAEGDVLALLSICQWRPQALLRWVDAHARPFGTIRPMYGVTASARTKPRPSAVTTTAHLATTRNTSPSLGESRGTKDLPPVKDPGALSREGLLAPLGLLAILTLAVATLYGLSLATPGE
Put plainly: TREX1 Biochemical Assay (fluorescence, dsDNA substrate degradation). The following applies: 150 pM TREX1, 60 nM dsDNA substrate, 25 minutes at room temperature. Here is the method:
Degradation of the dsDNA liberates free fluorophore to produce a fluorescent signal. Specifically, 7.5 μL of N-terminally His-Tev tagged full length human TREX1 (expressed in E. coli and purified in house) in reaction buffer (50 mM Tris (pH 7.4), 150 mM NaCl, 2 mM DTT, 0.1 mg/mL BSA, 0.01% (v/v) Tween-20 and 100 mM MgCl2) was added to a 384-well Black ProxiPlate Plus (Perkin Elmer) which already contained compound (150 nL) at varying concentrations as a 10 point dose-response in DMSO. To this was added 7.5 μL of dsDNA substrate (Strand A: 5′ TEX615/GCT AGG CAG 3′; Strand B: 5′ CTG CCT AGC/IAbRQSp (Integrated DNA Technologies)) in reaction buffer. Final concentrations were 150 pM TREX1, 60 nM dsDNA substrate in reaction buffer with 1.0% DMSO (v/v). After 25 minutes at room temperature, reactions were quenched by the addition of 5 μL of stop buffer (same as reaction buffer plus 200 mM EDTA). Final concentrations in the quenched reaction were 112.5 pM TREX1, 45 nM DNA and 50 mM EDTA in a volume of 20 μL. After a 5-minute incubation at room temperature, plates were read in a laser sourced Envision (Perkin-Elmer), measuring fluorescence at 615 nm following excitation w/570 nm light. IC50 values were calculated by comparing the measured fluorescence at 615 nm ratio relative to control wells pre-quenched w/stop buffer (100% inhibition) and no inhibitor (0% inhibition) controls as using non-linear least square four parameter fits and either Genedata or GraphPad Prism (GraphPad Software, Inc.).

Assay [1] deals with T2, human TREX2 (residues M44-A279) (Homo sapiens, UniProt Q9BQ50).
T2 construct: human TREX2 (residues M44-A279, expressed in E. coli); made in house; host or cells: E. coli
T2 sequence (Q9BQ50 44-279 isoform Q9BQ50-1): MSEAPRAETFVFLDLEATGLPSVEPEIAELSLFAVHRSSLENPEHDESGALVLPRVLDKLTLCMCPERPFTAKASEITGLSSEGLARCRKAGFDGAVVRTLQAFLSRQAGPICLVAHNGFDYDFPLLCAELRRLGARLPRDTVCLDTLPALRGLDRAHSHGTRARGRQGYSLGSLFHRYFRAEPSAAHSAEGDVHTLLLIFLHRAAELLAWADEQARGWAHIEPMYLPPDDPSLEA
Put plainly: TREX2 Biochemical Assay (fluorescence, dsDNA substrate degradation). The following applies: 2.5 nM TREX2, 60 nM dsDNA substrate, 25 minutes at room temperature. Here is the method: Degradation of the dsDNA liberates free fluorophore to produce a fluorescent signal. Specifically, 7.5 μL of N-terminally His-Tev tagged human TREX2 (residues M44-A279, expressed in E. coli and purified in house) in reaction buffer (50 mM Tris (pH 7.4), 150 mM NaCl, 2 mM DTT, 0.1 mg/mL BSA, 0.01% (v/v) Tween-20 and 100 mM MgCl2) was added to a 384-well Black ProxiPlate Plus (Perkin Elmer) which already contained compound (150 nL) at varying concentrations as a 10 point dose-response in DMSO. To this was added 7.5 μL of dsDNA substrate (Strand A: 5′ TEX615/GCT AGG CAG 3′; Strand B: 5′ CTG CCT AGC/IAbRQSp (IDT)) in reaction buffer. Final concentrations were 2.5 nM TREX2, 60 nM dsDNA substrate in reaction buffer with 1.0% DMSO (v/v). After 25 minutes at room temperature, reactions were quenched by the addition of 5 μL of stop buffer (same as reaction buffer plus 200 mM EDTA). Final concentrations in the quenched reaction mixture were […] TREX2, 45 nM DNA and 50 mM EDTA in a volume of 20 μL. After a 5-minute incubation at room temperature, plates were read in a laser sourced Envision (Perkin-Elmer), measuring fluorescence at 615 nm following excitation w/570 nm light. IC50 values were calculated by comparing the measured fluorescence at 615 nm ratio relative to control wells pre-quenched w/stop buffer (100% inhibition) and no inhibitor (0% inhibition) controls as using non-linear least square four parameter fits and either Genedata or GraphPad Prism (GraphPad Software, Inc.).

For `CN(c1nc(C(=O)Nc2ccc(F)cc2)c(O)c(=O)n1C)[C@H](c1ccccc1)c1ccccc1Cl` (stereo in doubt) [Example 29, 2-(((2-chlorophenyl)(phenyl)methyl)(methyl)amino)-N-(4-fluorophenyl)-5-hydroxy-1-methyl-6-oxo-1,6-dihydropyrimidine-4-carboxamide], the IC50 is 0.1 to 1 µM against full length human TREX1 and below 1 µM in assay [1].
For `CN(c1nc(C(=O)NCC(F)(F)F)c(O)c(=O)n1C)C(c1ccccc1)c1ccccc1` [Example 1, 2-(benzhydryl(methyl)amino)-5-hydroxy-1-methyl-6-oxo-N-(2,2,2-trifluoroethyl)-1,6-dihydropyrimidine-4-carboxamide] the same measures were 1 to 10 µM and 10 to 100 µM.
Regarding `CN(c1nc(C(=O)NC2CC(F)(F)C2)c(O)c(=O)n1C)C(c1ccccc1)c1ccccc1` [Example 2, 2-(benzhydryl(methyl)amino)-N-(3,3-difluorocyclobutyl)-5-hydroxy-1-methyl-6-oxo-1,6-dihydropyrimidine-4-carboxamide], the IC50 against full length human TREX1 was 1 to 10 µM; in assay [1], 10 to 100 µM.
The like results for `CN(c1nc(C(=O)N[C@H]2CCOC2)c(O)c(=O)n1C)C(c1ccccc1)c1ccccc1` [Example 3, (S)-2-(benzhydryl(methyl)amino)-5-hydroxy-1-methyl-6-oxo-N-(tetrahydrofuran-3-yl)-1,6-dihydropyrimidine-4-carboxamide] were, in that order, above 10 µM and 10 to 100 µM.
The like results for `CN(c1nc(C(=O)N[C@@H]2CCOC2)c(O)c(=O)n1C)C(c1ccccc1)c1ccccc1` [Example 4, (R)-2-(benzhydryl(methyl)amino)-5-hydroxy-1-methyl-6-oxo-N-(tetrahydrofuran-3-yl)-1,6-dihydropyrimidine-4-carboxamide] were, in that order, above 10 µM and 10 to 100 µM.
The like results for `C=C(C)CNC(=O)c1nc(N(C)C(c2ccccc2)c2ccccc2)n(C)c(=O)c1O` [Example 5, 2-(benzhydryl(methyl)amino)-5-hydroxy-1-methyl-N-(2-methylallyl)-6-oxo-1,6-dihydropyrimidine-4-carboxamide] were, in that order, 1 to 10 µM and 10 to 100 µM.
In the case of `CN(c1nc(C(=O)NC2CC=CC2)c(O)c(=O)n1C)C(c1ccccc1)c1ccccc1` [Example 6, 2-(benzhydryl(methyl)amino)-N-(cyclopent-3-en-1-yl)-5-hydroxy-1-methyl-6-oxo-1,6-dihydropyrimidine-4-carboxamide], the IC50 against full length human TREX1 was 1 to 10 µM; in assay [1], 10 to 100 µM.
The like results for `CN(c1nc(C(=O)NC2CCC2)c(O)c(=O)n1C)C(c1ccccc1)c1ccccc1` [Example 7, 2-(benzhydryl(methyl)amino)-N-cyclobutyl-5-hydroxy-1-methyl-6-oxo-1,6-dihydropyrimidine-4-carboxamide] were, in that order, 1 to 10 µM and 10 to 100 µM.
For `C=CCNC(=O)c1nc(N(C)C(c2ccccc2)c2ccccc2)n(C)c(=O)c1O` [Example 8, N-allyl-2-(benzhydryl(methyl)amino)-5-hydroxy-1-methyl-6-oxo-1,6-dihydropyrimidine-4-carboxamide] the same measures were 1 to 10 µM and 1 to 10 µM.
As to `CN(c1nc(C(=O)NC2COC2)c(O)c(=O)n1C)C(c1ccccc1)c1ccccc1` [Example 9, 2-(benzhydryl(methyl)amino)-5-hydroxy-1-methyl-N-(oxetan-3-yl)-6-oxo-1,6-dihydropyrimidine-4-carboxamide], the IC50 against full length human TREX1 is above 10 µM; in assay [1], 10 to 100 µM.
For `CCNC(=O)c1nc(N(C)C(c2ccccc2)c2ccccc2)n(C)c(=O)c1O` [Example 10, 2-(benzhydryl(methyl)amino)-N-ethyl-5-hydroxy-1-methyl-6-oxo-1,6-dihydropyrimidine-4-carboxamide] the same measures were 1 to 10 µM and 10 to 100 µM.
For `COCCNC(=O)c1nc(N(C)C(c2ccccc2)c2ccccc2)n(C)c(=O)c1O` [Example 11, 2-(benzhydryl(methyl)amino)-5-hydroxy-N-(2-methoxyethyl)-1-methyl-6-oxo-1,6-dihydropyrimidine-4-carboxamide] the same measures were above 10 µM and 10 to 100 µM.
For `CNC(=O)c1nc(N(C)C(c2ccccc2)c2ccccc2)n(C)c(=O)c1O` [Example 12, 2-(benzhydryl(methyl)amino)-5-hydroxy-N,1-dimethyl-6-oxo-1,6-dihydropyrimidine-4-carboxamide] the same measures were above 10 µM and 10 to 100 µM.
Consider `CN(c1nc(C(=O)NCCC(F)(F)F)c(O)c(=O)n1C)C(c1ccccc1)c1ccccc1` [Example 13, 2-(benzhydryl(methyl)amino)-5-hydroxy-1-methyl-6-oxo-N-(3,3,3-trifluoropropyl)-1,6-dihydropyrimidine-4-carboxamide], for which the values for the IC50 (against full length human TREX1; in assay [1]) were 0.1 to 1 µM and 10 to 100 µM, respectively.
The like results for `CN(c1nc(C(=O)NCC2CC2)c(O)c(=O)n1C)C(c1ccccc1)c1ccccc1` [Example 14, 2-(benzhydryl(methyl)amino)-N-(cyclopropylmethyl)-5-hydroxy-1-methyl-6-oxo-1,6-dihydropyrimidine-4-carboxamide] were, in that order, 0.1 to 1 µM and 1 to 10 µM.
The like results for `CN(c1nc(C(=O)Nc2ccccc2)c(O)c(=O)n1C)C(c1ccccc1)c1ccccc1` [Example 15, 2-(benzhydryl(methyl)amino)-5-hydroxy-1-methyl-6-oxo-N-phenyl-1,6-dihydropyrimidine-4-carboxamide] were, in that order, below 0.1 µM and below 1 µM.
For the compound `CN(c1nc(C(=O)Nc2cccc(F)c2)c(O)c(=O)n1C)C(c1ccccc1)c1ccccc1` [Example 16, 2-(benzhydryl(methyl)amino)-N-(3-fluorophenyl)-5-hydroxy-1-methyl-6-oxo-1,6-dihydropyrimidine-4-carboxamide], the IC50 on full length human TREX1 was below 0.1 µM; in assay [1], below 1 µM.
The like results for `CN(c1nc(C(=O)Nc2ccccc2F)c(O)c(=O)n1C)C(c1ccccc1)c1ccccc1` [Example 17, 2-(benzhydryl(methyl)amino)-N-(2-fluorophenyl)-5-hydroxy-1-methyl-6-oxo-1,6-dihydropyrimidine-4-carboxamide] were, in that order, below 0.1 µM and below 1 µM.
The like results for `CN(c1nc(C(=O)Nc2ccc(F)cc2)c(O)c(=O)n1C)C(c1ccccc1)c1ccccc1` [Example 18, 2-(benzhydryl(methyl)amino)-N-(4-fluorophenyl)-5-hydroxy-1-methyl-6-oxo-1,6-dihydropyrimidine-4-carboxamide] were, in that order, 0.1 to 1 µM and below 1 µM.

Usually IC50 stands for the concentration at which inhibition is half-maximal.
